# Source: paper PMC9367672, “In vitro differences in toddalolactone metabolism in various species and its effect on cytochrome P450 expression” (Pharmaceutical Biology, 2022)
# What was measured:
# [1] = Metabolic stability assessment in dog liver microsomes; format: in vitro ADME; conditions: beagle, pH 7.4, DLMs, CYP incubation system, toddalolactone 20 μM, 0-90 min, read-out: half-life value (T1/2)
# Protocol: (§1) The CYP reaction system (200 μL) consisted of 0.1 M potassium phosphate buffer (pH 7.4), an NADPH-generating system (1 mM NADPH, 10 mM G-6-P, 1 unit/mL G-6-PD, 4 mM MgCl2), and liver microsomes or recombinant human microsomes (supersomes). Each of the in vitro enzymatic assays using liver microsomes was linear with respect to incubation time and amount of protein. After a pre-incubation at 37 °C for 3 min, the reactions were initiated by adding NADP^+. After incubating for 60 min, the reactions were quenched by adding 200 μL of ice-cold acetonitrile. Samples were centrifuged at 18,000 g for 15 min at 4 °C and 10 μL of supernatant was analyzed using an HPLC system. […]
# (§2) In the UGT reaction system, liver microsomes were incubated in 200 μL of the reaction system containing 4 mM UDPGA, 5 mM MgCl2, 20 µg/mL alamethicin, and 50 mM Tris-HCl buffer (pH 7.4). […] After centrifugation at 18,000 g for 15 min, 10 μL of the supernatant was analyzed by HPLC.
# (§3) Toddalolactone (20 μM) was incubated with different liver microsomes, including HLMs, DLMs, PLMs, MLMs, RAMs, RLMs or MIMs in oxidative metabolism and glucuronidation reaction systems. […] The mixtures were centrifuged at 18,000 g for 15 min at 4 °C and then 10 μL of the supernatant was analyzed by HPLC. […]
# (§4) The peak areas of toddalolactone and its metabolites were detected using a HPLC system (Shimadzu, Kyoto, Japan). […]
# [2] = system: DLMs; assay: Enzyme kinetics of toddalolactone metabolism in dog liver microsomes (oxidative metabolism); format: in vitro ADME, beagle dog; conditions: P450-catalyzed oxidation, P4 formation
# Protocol: (§5) The CYP reaction system (200 μL) consisted of 0.1 M potassium phosphate buffer (pH 7.4), an NADPH-generating system (1 mM NADPH, 10 mM G-6-P, 1 unit/mL G-6-PD, 4 mM MgCl2), and liver microsomes or recombinant human microsomes (supersomes). Each of the in vitro enzymatic assays using liver microsomes was linear with respect to incubation time and amount of protein. After a pre-incubation at 37 °C for 3 min, the reactions were initiated by adding NADP^+. After incubating for 60 min, the reactions were quenched by adding 200 μL of ice-cold acetonitrile. Samples were centrifuged at 18,000 g for 15 min at 4 °C and 10 μL of supernatant was analyzed using an HPLC system. NADPH or CYP enzyme sources were not used in the control group to ensure that the metabolic reactions were CYP- and NADPH-dependent. All incubation assays were completed in triplicate. The data are presented as mean ± standard deviation (SD).
# (§6) The enzyme kinetics of toddalolactone in oxidative metabolism and glucuronidation were determined by incubating liver microsomes (0.2 mg/mL) or CYPs (15 nM) with different concentrations of toddalolactone (1–200 μM). […] The in vitro intrinsic clearance (CLint) was calculated based on the Vmax/Km ratio. Metabolites were quantified using the standard curve for toddalolactone because of the absence of metabolite standards. […]
# (§7) The enzyme kinetics in oxidative metabolism and glucuronidation of toddalolactone were studied, and preliminary experiments were performed to ensure that metabolites were formed in the linear range of both reaction time and microsomal protein concentration. […] Based on the results of toddalolactone metabolism in different species, the kinetic parameter values in RLMs, DLMs, MLMs, HLMs, RAMs, MIMs, PLMs, CYP1A1 and CYP3A5 were calculated using P4, P4, P4, P4, P2, P2, P4, P4 and P4 data in oxidative metabolism, respectively. In the glucuronidation reaction, the kinetic parameter values in RLMs, MLMs, HLMs, RAMs and PLMs were calculated using P5, P6, P6, P6 and P5 data, respectively.
# [3] = as above; format: in vitro ADME, beagle dog; conditions: beagle, dog, liver microsomes, pH 7.4; DLMs; P450-catalyzed oxidation; P4 formation; Vmax/Km
# Protocol: as §5, §6, §7
# [4] = Metabolic stability assessment in human liver microsomes (CYP and UGT incubation systems); format: in vitro ADME; conditions: pH 7.4, HLMs, toddalolactone 20 μM, 0-90 min
# Protocol: as §1, §2, §3, §4
structure (smiles),measurement,setting,value
COc1cc2oc(=O)ccc2c(OC)c1C[C@@H](O)C(C)(C)O [toddalolactone],half-life at 20 μM,[1],8.23 ± 0.7 h
same,K m,[2],148.93 ± 38.37 µM
same,V max,[2]; toddalolactone 1–200 μM,29.76 ± 7.27 pmol/min/mg protein
same,microsomal CLint,[3],0.19 µL/min/mg
same,half-life at 20 μM,"[4]; CYP incubation system, read-out: half-life value (T1/2)",11.2 h
same,half-life at 20 μM,"[4]; UGT incubation system, read-out: T1/2 value",1.38 h
